What is called inhibition is the drop in the measured response relative to a control, in per cent.

Where a name gives a salt, the structure may show the parent alone.

The record followed here is patent publication US6046218A, “Pyridine derivative and medicament containing the same as an effective ingredient” (SS Pharmaceutical Co., Ltd., priority 1996, dated 2000).

One test concerns IL-5 production. The test can be described thus: Test 3: inhibition of IL-5 production in human PBMC stimulated with ConA. The following applies: 10^-6 M, 10 μg/ml ConA, 48 hours, read-out: Inhibition rate of IL-5 production. Format: cell-based. On the procedure:
Test 3: Test on the inhibition of IL-5 production
The peripheral blood was collected from a normal volunteer and peripheral blood mononuclear cells (PBMC) of the human peripheral blood were separated therefrom by the specific gravity centrifugation method. They were suspended in an AIM-V medium and their cell count was adjusted. To individual wells of a 96-well incubation plate, 1×10^6 cells/ml of PBMC were poured, followed by the addition of a stimulator (10 μg/ml of ConA) and a medicament. The resulting mixture was incubated in 5% CO2 at 37° C. for 48 hours. After incubation, 50 μl of the supernatant were collected and subjected to measurement by a human IL-5 EIA kit (BIO SOURCE, INC.). The inhibition rate was calculated according to the following formula. [formula]
Regarding `COC(=O)CCCOc1cc(/C=C/C(=O)c2ccccc2)ncc1OC` [Ex. 16, Methyl 4-[5-methoxy-2-(3-oxo-3-phenyl-1-propenyl)-4-pyridyloxy]butanoate], the inhibition at 1 µM turned out to be 79.4%.

Turning to `COC(=O)CCCCCOc1cnc(/C=C/C(=O)C2CCCC2)cc1OC` [Ex. 17, Methyl 6-[4-methoxy-2-(3-cyclopentyl-3-oxo-1-propenyl)-5-pyridyloxy]hexanoate], the inhibition at 1 µM came to 84.3%.

As for `COC(=O)CCCOc1cnc(/C=C/C(=O)C2CCCC2)cc1OC` [Ex. 18, Methyl 4-[4-methoxy-2-(3-cyclopentyl-3-oxo-1-propenyl)-5-pyridyloxy]butanoate], the inhibition at 1 µM came out at 96.9%.

In the case of `COc1cc(/C=C/C(=O)c2ccccc2)ncc1O` [Ex. 21, 5-hydroxy-4-methoxy-2-(3-oxo-3-phenyl-1-propenyl)pyridine], the inhibition at 1 µM was determined as 67.3%.

As to `CCCCCC(=O)/C=C/c1cc(O)c(O)cn1` [Ex. 22, 4,5-Dihydroxy-2-(3-oxo-1-octenyl)pyridine], the inhibition at 1 µM amounted to 80.9%.

Take `COc1cnc(/C=C/C(O)c2ccccc2)cc1OC` (stereo not drawn) [Ex. 23, 4,5-dimethoxy-2-(3-hydroxy-3-phenyl-1-propenyl)pyridine]: the inhibition at 1 µM turned out to be 96.3%.

For the molecule `COc1cnc(/C=C/C(O)c2ccccc2)cc1O` (stereo not drawn) [Ex. 24, 4-Hydroxy-2-(3-hydroxy-3-phenyl-1-propenyl)-5-methoxypyridine], the inhibition at 1 µM amounted to 80%.

Regarding `CCCCCC(O)/C=C/c1cc(OCCCCCC(=O)OC)c(OC)cn1` (stereo not drawn) [Ex. 30, Methyl 6-[2-(3-hydroxy-1-octenyl)-5-methoxy-4-pyridyloxy]hexanoate], the inhibition at 1 µM was 73.2%.

Regarding `COc1cnc(/C=C/C(=O)N2CCCCC2)cc1OC` [Ex. 107, 4,5-dimethoxy-2-(3-oxo-3-piperidino-1-propenyl)pyridine hydrochloride], the inhibition at 1 µM amounted to 71.9%.

With `COc1cnc(/C=C/C(=O)N2CCCC2)cc1OC` [Ex. 108, 4,5-Dimethoxy-2-(3-oxo-3-pyrrolidino-1-propenyl)pyridine hydrochloride], the inhibition at 1 µM stood at 78.5%.

In the case of `COc1cnc(/C=C/C(=O)N2CCCCCC2)cc1OC` [Ex. 109, 4,5-Dimethoxy-2-[3-(1-azepanyl)-3-oxo-1-propenyl]pyridine hydrochloride], the inhibition at 1 µM was 83.8%.

As to `COc1cnc(/C=C/C(=O)N2CCOCC2)cc1OC` [Ex. 110, 4,5-Dimethoxy-2-(3-morpholino-3-oxo-1-propenyl)pyridine hydrochloride], the inhibition at 1 µM came to 79.3%.

On to `COc1cnc(/C=C/C(=O)N2CCCCC2)cc1OC1CCCC1` [Ex. 111, 4-Cyclopentyloxy-5-methoxy-2-(3-oxo-3-piperidino-1-propenyl)pyridine hydrochloride], for which the inhibition at 1 µM stood at 73.2%.

The subject of the next test is IL-4 production. The test can be described thus: Test 1: inhibition of IL-4 production in human T-cell strain ATL-16T(-) stimulated with PMA (R&D Systems EIA). The following applies: 10^-5 M, ATL-16T(-) 1×10^6 cells/0.5 ml/well, 20 nM PMA, 48 hours, read-out: Inhibition rate of IL-4 production. Format: cell-based. The method, then: Test 1: Test on the inhibition of IL-4 production
Into individual wells of a 48-well microplate, the human T-cell strain ATL-16T(-) was poured at a concentration of 1×10^6 cells/0.5 ml/well (n=3), followed by the addition of a stimulator (20 nM of PMA) and a medicament at the same time. The resulting mixture was incubated in 5% CO2 at 37° C. for 48 hours. After incubation, 100 μl of the supernatant were collected and subjected to measurement by a human IL-4 EIA kit (R&D SYSTEMS, INC.). The inhibition rate was calculated according to the following formula. [formula]
As to `COC(=O)CCCOc1cc(/C=C/C(=O)c2ccccc2)ncc1OC` [Ex. 16, Methyl 4-[5-methoxy-2-(3-oxo-3-phenyl-1-propenyl)-4-pyridyloxy]butanoate], the inhibition at 10 µM worked out at 90.1%.

`COC(=O)CCCCCOc1cnc(/C=C/C(=O)C2CCCC2)cc1OC` [Ex. 17, Methyl 6-[4-methoxy-2-(3-cyclopentyl-3-oxo-1-propenyl)-5-pyridyloxy]hexanoate]: the inhibition at 10 µM was found to be 111%.

Consider `COC(=O)CCCOc1cnc(/C=C/C(=O)C2CCCC2)cc1OC` [Ex. 18, Methyl 4-[4-methoxy-2-(3-cyclopentyl-3-oxo-1-propenyl)-5-pyridyloxy]butanoate], for which the inhibition at 10 µM is 88.2%.

As for `COc1cc(/C=C/C(=O)c2ccccc2)ncc1O` [Ex. 21, 5-hydroxy-4-methoxy-2-(3-oxo-3-phenyl-1-propenyl)pyridine], the inhibition at 10 µM came out at 97.3%.

As to `CCCCCC(=O)/C=C/c1cc(O)c(O)cn1` [Ex. 22, 4,5-Dihydroxy-2-(3-oxo-1-octenyl)pyridine], the inhibition at 10 µM came to 111%.

Consider `COc1cnc(/C=C/C(O)c2ccccc2)cc1OC` (stereo not drawn) [Ex. 23, 4,5-dimethoxy-2-(3-hydroxy-3-phenyl-1-propenyl)pyridine], for which the inhibition at 10 µM is 88%.

With `COc1cnc(/C=C/C(O)c2ccccc2)cc1O` (stereo not drawn) [Ex. 24, 4-Hydroxy-2-(3-hydroxy-3-phenyl-1-propenyl)-5-methoxypyridine], the inhibition at 10 µM amounted to 92.2%.

On to `CCCCCC(O)/C=C/c1cc(OCCCCCC(=O)OC)c(OC)cn1` (stereo not drawn) [Ex. 30, Methyl 6-[2-(3-hydroxy-1-octenyl)-5-methoxy-4-pyridyloxy]hexanoate], for which the inhibition at 10 µM was determined as 74%.

Still in this test, the particulars now being: 10^-6 M, ATL-16T(-) 1×10^6 cells/0.5 ml/well, 20 nM PMA, 48 hours, read-out: Inhibition rate of IL-4 production.
On to `COC(=O)CCCOc1cc(/C=C/C(=O)c2ccccc2)ncc1OC` [Ex. 16, Methyl 4-[5-methoxy-2-(3-oxo-3-phenyl-1-propenyl)-4-pyridyloxy]butanoate], for which the inhibition at 1 µM was 82.1%.

`COC(=O)CCCCCOc1cnc(/C=C/C(=O)C2CCCC2)cc1OC` [Ex. 17, Methyl 6-[4-methoxy-2-(3-cyclopentyl-3-oxo-1-propenyl)-5-pyridyloxy]hexanoate]: the inhibition at 1 µM was found to be 92.8%.

As to `COC(=O)CCCOc1cnc(/C=C/C(=O)C2CCCC2)cc1OC` [Ex. 18, Methyl 4-[4-methoxy-2-(3-cyclopentyl-3-oxo-1-propenyl)-5-pyridyloxy]butanoate], the inhibition at 1 µM was 78.3%.

Regarding `COc1cc(/C=C/C(=O)c2ccccc2)ncc1O` [Ex. 21, 5-hydroxy-4-methoxy-2-(3-oxo-3-phenyl-1-propenyl)pyridine], the inhibition at 1 µM was found to be 90.3%.

On to `CCCCCC(=O)/C=C/c1cc(O)c(O)cn1` [Ex. 22, 4,5-Dihydroxy-2-(3-oxo-1-octenyl)pyridine], for which the inhibition at 1 µM was 75.5%.

Consider `COc1cnc(/C=C/C(O)c2ccccc2)cc1OC` (stereo not drawn) [Ex. 23, 4,5-dimethoxy-2-(3-hydroxy-3-phenyl-1-propenyl)pyridine], for which the inhibition at 1 µM was determined as 80.7%.

Consider `COc1cnc(/C=C/C(O)c2ccccc2)cc1O` (stereo not drawn) [Ex. 24, 4-Hydroxy-2-(3-hydroxy-3-phenyl-1-propenyl)-5-methoxypyridine], for which the inhibition at 1 µM came to 79.5%.

As to `CCCCCC(O)/C=C/c1cc(OCCCCCC(=O)OC)c(OC)cn1` (stereo not drawn) [Ex. 30, Methyl 6-[2-(3-hydroxy-1-octenyl)-5-methoxy-4-pyridyloxy]hexanoate], the inhibition at 1 µM was 67%.

Staying with this test, now noted: 10^-7 M, ATL-16T(-) 1×10^6 cells/0.5 ml/well, 20 nM PMA, 48 hours, read-out: Inhibition rate of IL-4 production.
As to `COC(=O)CCCOc1cc(/C=C/C(=O)c2ccccc2)ncc1OC` [Ex. 16, Methyl 4-[5-methoxy-2-(3-oxo-3-phenyl-1-propenyl)-4-pyridyloxy]butanoate], the inhibition at 0.1 µM came to 81.6%.

As to `COC(=O)CCCCCOc1cnc(/C=C/C(=O)C2CCCC2)cc1OC` [Ex. 17, Methyl 6-[4-methoxy-2-(3-cyclopentyl-3-oxo-1-propenyl)-5-pyridyloxy]hexanoate], the inhibition at 0.1 µM came out at 88.6%.

As to `COC(=O)CCCOc1cnc(/C=C/C(=O)C2CCCC2)cc1OC` [Ex. 18, Methyl 4-[4-methoxy-2-(3-cyclopentyl-3-oxo-1-propenyl)-5-pyridyloxy]butanoate], the inhibition at 0.1 µM stood at 67.8%.

Regarding `COc1cc(/C=C/C(=O)c2ccccc2)ncc1O` [Ex. 21, 5-hydroxy-4-methoxy-2-(3-oxo-3-phenyl-1-propenyl)pyridine], the inhibition at 0.1 µM was determined as 80.1%.

Consider `CCCCCC(=O)/C=C/c1cc(O)c(O)cn1` [Ex. 22, 4,5-Dihydroxy-2-(3-oxo-1-octenyl)pyridine], for which the inhibition at 0.1 µM is 67.6%.

Take `COc1cnc(/C=C/C(O)c2ccccc2)cc1OC` (stereo not drawn) [Ex. 23, 4,5-dimethoxy-2-(3-hydroxy-3-phenyl-1-propenyl)pyridine]: the inhibition at 0.1 µM worked out at 64.9%.

For `COc1cnc(/C=C/C(O)c2ccccc2)cc1O` (stereo not drawn) [Ex. 24, 4-Hydroxy-2-(3-hydroxy-3-phenyl-1-propenyl)-5-methoxypyridine], the inhibition at 0.1 µM was 69.5%.

Regarding `CCCCCC(O)/C=C/c1cc(OCCCCCC(=O)OC)c(OC)cn1` (stereo not drawn) [Ex. 30, Methyl 6-[2-(3-hydroxy-1-octenyl)-5-methoxy-4-pyridyloxy]hexanoate], the inhibition at 0.1 µM worked out at 56.8%.

Staying with this test, now noted: 10^-8 M, ATL-16T(-) 1×10^6 cells/0.5 ml/well, 20 nM PMA, 48 hours, read-out: Inhibition rate of IL-4 production.
Turning to `COC(=O)CCCOc1cc(/C=C/C(=O)c2ccccc2)ncc1OC` [Ex. 16, Methyl 4-[5-methoxy-2-(3-oxo-3-phenyl-1-propenyl)-4-pyridyloxy]butanoate], the inhibition at 0.01 µM came to 76.8%.

Take `COC(=O)CCCCCOc1cnc(/C=C/C(=O)C2CCCC2)cc1OC` [Ex. 17, Methyl 6-[4-methoxy-2-(3-cyclopentyl-3-oxo-1-propenyl)-5-pyridyloxy]hexanoate]: the inhibition at 0.01 µM came to 74.7%.

Turning to `COC(=O)CCCOc1cnc(/C=C/C(=O)C2CCCC2)cc1OC` [Ex. 18, Methyl 4-[4-methoxy-2-(3-cyclopentyl-3-oxo-1-propenyl)-5-pyridyloxy]butanoate], the inhibition at 0.01 µM was determined as 34.8%.

Take `COc1cc(/C=C/C(=O)c2ccccc2)ncc1O` [Ex. 21, 5-hydroxy-4-methoxy-2-(3-oxo-3-phenyl-1-propenyl)pyridine]: the inhibition at 0.01 µM amounted to 72.5%.

As for `CCCCCC(=O)/C=C/c1cc(O)c(O)cn1` [Ex. 22, 4,5-Dihydroxy-2-(3-oxo-1-octenyl)pyridine], the inhibition at 0.01 µM was 50%.

Take `COc1cnc(/C=C/C(O)c2ccccc2)cc1OC` (stereo not drawn) [Ex. 23, 4,5-dimethoxy-2-(3-hydroxy-3-phenyl-1-propenyl)pyridine]: the inhibition at 0.01 µM stood at 64.7%.

`COc1cnc(/C=C/C(O)c2ccccc2)cc1O` (stereo not drawn) [Ex. 24, 4-Hydroxy-2-(3-hydroxy-3-phenyl-1-propenyl)-5-methoxypyridine]: the inhibition at 0.01 µM was found to be 56%.

As to `CCCCCC(O)/C=C/c1cc(OCCCCCC(=O)OC)c(OC)cn1` (stereo not drawn) [Ex. 30, Methyl 6-[2-(3-hydroxy-1-octenyl)-5-methoxy-4-pyridyloxy]hexanoate], the inhibition at 0.01 µM was 40.7%.
